Key:
[1] = test system: aflatoxin accumulation by A. flavus; test: microbe, parasite or virus in culture; assay type: cell-based, Aspergillus flavus
A. cepa root cells = test system: A. cepa root cells
Procedure: To detect micronuclei and chromosomal aberrations six equal-sized pre-germinated young bulbs per sample were exposed for 24 h to sample dilutions. The bulbs dedicated to the micronuclei test underwent an additional treatment in the saline solution for 44 h of recovery time to cover two rounds of mitosis so that damage induced in chromosomes during mitosis to be visible as micronuclei in interphase cells. Then all the roots were fixed in acetic acid and ethanol (1:3) for 24 h and lastly stored in 70% ethanol. The negative control was DMSO in Rank’s solution (the dose of DMSO corresponding to volume of samples) and positive control was maleic hydrazide (10^−2 M, 6 h exposure). […] All experiments were performed in duplicate.

A. cepa = A. cepa toxicity test (root length); assay type: in vivo, Allium cepa; details: in vivo
Procedure: A. cepa toxicity test: Twelve equal-sized young onion bulbs were exposed for 96 h in the dark to different concentrations of compounds dissolved in DMSO, changing the sample solution every day. […] Root macroscopic parameters such as turgescence, consistency, change in color and root tip shape, were used as toxicity indexes.

[2] = test system: S. typhimurium TA98 and TA100 strains; test: Ames test, overall mutagenicity verdict in bacteria; details: TA98 and TA100, -S9 and +S9
A. flavus = test: microbe, parasite or virus in culture; assay type: cell-based, Aspergillus flavus; details: 100 µM

Row | Structure (SMILES) | A.I. (%) (aflatoxin accumulation inhibition) ([1]; 50 µM) | A.I. (%) (aflatoxin accumulation inhibition) ([1]; 100 µM) | DNA damage as chromosomal aberrations in Allium root cells (A. cepa root cells; 10.0 µM) | effect on A. cepa root length (A. cepa) | mutagenicity in bacteria [2] | G.I. (%) (A. flavus growth inhibition) (A. flavus) | mitotic index / interference with cell division (A. cepa root cells; respect to the control)
1 | O=C(O)c1ccc2c(c1)C(=O)c1ccccc1C2=O [Anthraquinone‐2‐carboxylic acid] | 56,0% | 80,0% | induced DNA damage as chromosomal aberrations | reduction of A. cepa root length | – | – | –
2 | NC(=S)NNC(=O)c1ccc2c(c1)C(=O)c1ccccc1C2=O [Anthraquinone‐2‐carbonyl‐1‐thiosemicarbazide] | – | – | – | – | slight mutagenic activity | 58,0% | –
3 | CN(C)C(=S)NN=Cc1ccccc1 [benzaldehyde 4,4'‐dimethyl thiosemicarbazone] | 76,0% | 90,0% | – | – | without showing any mutagenic effect | – | lower mitotic index
4 | CN(C)C(=S)NN=CC=Cc1ccccc1 [Cinnamaldehyde 4,4‐dimethyl thiosemicarbazone] | 100% | 100% | – | reduction of A. cepa root length | slight mutagenic activity | – | –

— PMC8123576 (International Journal of Molecular Sciences, 2021)
